{
  "source": "patent US20050096350A1",
  "about": "“Halo substituted benzo[b]thiophenes as therapeutic agents” (priority 2003, published 2005)",
  "molecular_target": "T1, PI3Kγ (purified recombinant p101/p110γ protein) (Homo sapiens, UniProt P48736)",
  "T1 construct": "HA; made in house; host or cells: Spodoptera frugiperda Sf9 cells (baculovirus coinfection)",
  "T1 sequence (P48736 whole entry, species assumed)": "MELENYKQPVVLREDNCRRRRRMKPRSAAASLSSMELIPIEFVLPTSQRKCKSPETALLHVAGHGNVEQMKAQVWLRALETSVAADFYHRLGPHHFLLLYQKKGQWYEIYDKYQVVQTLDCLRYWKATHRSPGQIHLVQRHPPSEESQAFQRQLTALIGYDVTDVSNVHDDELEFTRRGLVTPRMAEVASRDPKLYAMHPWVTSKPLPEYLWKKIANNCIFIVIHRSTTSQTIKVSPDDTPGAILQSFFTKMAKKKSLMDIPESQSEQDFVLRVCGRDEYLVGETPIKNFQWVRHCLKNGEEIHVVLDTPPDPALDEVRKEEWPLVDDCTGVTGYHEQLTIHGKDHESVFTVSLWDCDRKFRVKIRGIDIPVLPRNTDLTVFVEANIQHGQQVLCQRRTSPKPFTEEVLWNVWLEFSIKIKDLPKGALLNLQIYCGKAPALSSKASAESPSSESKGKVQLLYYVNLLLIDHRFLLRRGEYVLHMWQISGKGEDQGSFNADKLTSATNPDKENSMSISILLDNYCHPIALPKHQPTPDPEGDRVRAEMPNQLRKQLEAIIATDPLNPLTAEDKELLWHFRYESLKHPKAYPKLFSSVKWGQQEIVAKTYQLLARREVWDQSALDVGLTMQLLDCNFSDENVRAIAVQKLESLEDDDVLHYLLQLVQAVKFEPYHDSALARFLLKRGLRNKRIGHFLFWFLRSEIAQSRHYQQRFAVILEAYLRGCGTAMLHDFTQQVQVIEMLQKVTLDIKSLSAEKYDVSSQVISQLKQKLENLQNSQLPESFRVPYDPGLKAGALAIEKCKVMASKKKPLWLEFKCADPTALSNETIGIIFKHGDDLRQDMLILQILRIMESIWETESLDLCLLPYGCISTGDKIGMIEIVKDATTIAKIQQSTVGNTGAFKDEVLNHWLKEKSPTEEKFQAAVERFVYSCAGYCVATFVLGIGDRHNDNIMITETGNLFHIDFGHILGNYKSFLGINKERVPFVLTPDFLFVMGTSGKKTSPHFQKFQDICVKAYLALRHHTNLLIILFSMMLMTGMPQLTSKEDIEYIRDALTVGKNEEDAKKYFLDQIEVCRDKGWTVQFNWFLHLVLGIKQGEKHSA",
  "T1 sequence (Q8WYR1 whole entry partner, species assumed)": "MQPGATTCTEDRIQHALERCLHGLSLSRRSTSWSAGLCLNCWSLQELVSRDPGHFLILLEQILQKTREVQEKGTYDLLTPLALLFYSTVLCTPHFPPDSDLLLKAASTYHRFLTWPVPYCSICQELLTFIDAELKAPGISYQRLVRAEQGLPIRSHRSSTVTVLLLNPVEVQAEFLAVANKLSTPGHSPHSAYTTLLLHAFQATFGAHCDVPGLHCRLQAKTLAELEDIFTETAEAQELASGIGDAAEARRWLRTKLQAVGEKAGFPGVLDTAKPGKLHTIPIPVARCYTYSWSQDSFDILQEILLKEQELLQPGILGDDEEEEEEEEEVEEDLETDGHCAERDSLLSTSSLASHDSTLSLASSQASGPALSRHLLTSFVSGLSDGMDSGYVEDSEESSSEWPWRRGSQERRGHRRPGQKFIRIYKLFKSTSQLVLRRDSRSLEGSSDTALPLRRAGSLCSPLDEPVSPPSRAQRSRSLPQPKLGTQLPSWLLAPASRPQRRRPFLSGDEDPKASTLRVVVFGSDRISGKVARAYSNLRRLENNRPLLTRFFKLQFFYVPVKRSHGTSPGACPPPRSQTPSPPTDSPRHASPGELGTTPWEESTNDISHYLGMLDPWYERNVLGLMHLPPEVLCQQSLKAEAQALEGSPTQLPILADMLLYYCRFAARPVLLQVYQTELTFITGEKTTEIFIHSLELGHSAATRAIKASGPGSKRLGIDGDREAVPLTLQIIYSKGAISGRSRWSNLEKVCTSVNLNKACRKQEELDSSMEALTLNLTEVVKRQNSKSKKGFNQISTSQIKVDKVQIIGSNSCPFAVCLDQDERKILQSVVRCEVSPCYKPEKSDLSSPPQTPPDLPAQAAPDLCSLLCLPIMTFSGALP",
  "test": "PI3Kγ in vitro kinase assay",
  "type": "biochemical",
  "conditions": "20 μM ATP, 25 μM PIP2, G protein β1/γ2 subunits",
  "protocol": "Spodtera frugiperda cells, grown in ESF921 media, were coinfected with baculovirus expressing a glu-tagged p101 and baculovirus expressing an HA-tagged […], at a 3:1 ratio of p101 baculovirus to p110γ baculovirus. Sf9 cells were grown to 1×10^7 total cells/mL in 10 L bioreactors and harvested 48-72 hours post infection. Samples of infected cells were then tested for expression of p101/p110γ PI3 kinase by immunoprecipitation and Western Blot analysis methods (see below).\nTo purify PI3Kγ, 4 volumes of room temperature hypotonic lysis buffer (1 mM MgCl2, 1 mM DTT, 5 mM EGTA, 1 mM Pefabloc, 0.5 μM aprotinin, 5 μM leupeptin, 2 μM pepstatin, 5 μM E64, pH 8) per gram of cell paste, was poured onto frozen cell pellets with stirring, then lysed in a nitrogen “bomb” at 400 psi (599HC T316, Parr Instrument Co, Moline, Ill.). NaCl was added to 150 mM, and sodium cholate was added to 1% and mixed for another 45 minutes. The lysates were clarified by centrifugation for 25 minutes at 14,000 rpm. The lysates were then loaded over anti-glu-linked Protein-G Sepaharose beads (Covance Research Products, Richmond, Calif.) using 20 mL resin/50 g cell paste. The column was washed with 15 volumes of wash buffer (1 mM DTT, 0.2 mM EGTA, 1 mM Pefabloc, 0.5 μM aprotinin, 5 μM leupeptin, 2 μM pepstatin, 5 μM E64, 150 mM NaCl, 1% sodium cholate, pH 8). PI3Kγ was eluted with 6 column volumes of wash buffer that contain 100 μg/mL of a peptide that competes for binding of the glu tag. The column fractions with the eluted protein (determined by taking OD280 readings) were collected and dialyzed in 0.2 mM EGTA, 1 mM DTT, 1 mM Pefabloc, 5 μM leupeptin, 0.5% sodium cholate, 150 mM NaCl, and 50% glycerol, pH 8. The fractions were stored at −80° C. until further use.\nSpodtera frugiperda cells were coinfected with baculovirus expressing a glu-tagged G protein β1 and baculovirus expressing a G protein β2, at a 1:1 ratio of glu-tagged G protein β1 baculovirus to G protein β2 baculovirus. Sf9 cells are grown in 10 L bioreactors and harvested 48-72 hours post infection. Samples of infected cells were tested for G protein β1/β2 expression by Western Blot analysis, as described below. Cell lysates were homogenized and loaded onto a column of glu-tagged beads as in Biological Example 1 and competed off the column with a glu peptide and processed as described in Biological Example 1.\nThe inhibitory properties of the compounds in Table 1 were assayed in an in vitro PI3K assay. In a 96-well polypropylene plate, each well was spotted with 2 μL of 50 times the desired final concentration of compound in DMSO. Purified recombinant p101/p110γ protein (0.03 μg; ˜2.7 nM) and G protein β1/γ2 subunits (0.09 μg; ˜57.7 nM) for each reaction was combined in the assay buffer (30 mM HEPES, 100 mM NaCl, 1 mM EGTA, and 1 mM DTT). ATP and [γ-^32P-ATP] (0.09 μCi) were added to this mixture so that the final ATP concentration in the reaction was 20 μM. Lipid micelles were formed by sonicating phosphatidylinositol-4,5-diphosphate (PIP2), phosphatidylethanolamine (PE), and Na-cholate in the assay buffer for 10 minutes, adding MgCl2 and incubating on ice for 20 minutes, for final concentrations of 25 μM PIP2, 300 μM PE, 0.02% Na-cholate, and 10 mM MgCl2 in the reaction. The reactions were started by adding equal volumes lipid and enzyme mixture in a total volume of 50 μL, allowed to run for 20 minutes at room temperature, and stopped with 100 μL 75 mM H3PO4. The lipid product was transferred to a glass fiber filter plate and washed with 75 mM H3PO4 several times. The presence of radioactive lipid product (PIP3) was measured by adding Wallac Optiphase mix to each well and counting in a Wallac 1450 Trilux plate reader (PerkinElmer Life Sciences Inc., Boston, Mass. 02118). The IC50 for each compound tested is reported in μM in the Tables above.",
  "data": [
    {"molecule": "COc1cc2c(OC3CC(C)CC(C)(C)C3)c(C(=O)Nc3nn[nH]n3)sc2cc1F", "note": "(stereo not drawn) [Example 12, 6-Fluoro-5-methoxy-3-(3,3,5-trimethyl-cyclohexyloxy)-benzo[b]thiophene-2-carboxylic acid (2H-tetrazol-5-yl)-amide]", "values": [
      {"measurement": "IC50", "value": 5.3, "unit": "nM"}
    ]},
    {"molecule": "COC(=O)CCc1ccc(Sc2c(C(=O)Nc3nnn[nH]3)sc3ccc(OC)c(F)c23)cc1", "note": "[Example 28, 3-{4-[4-Fluoro-5-methoxy-2-(1H-tetrazol-5-ylcarbamoyl)-benzo[b]thiophen-3-ylsulfanyl]-phenyl}-propionic acid methyl ester]", "values": [
      {"measurement": "IC50", "value": 14900, "unit": "nM"}
    ]},
    {"molecule": "4-Fluoro-5-methoxy-3-(3-trifluoromethyl-phenylsulfanyl)-benzo[b]thiophene-2-carboxylic acid (1H-tetrazol-5-yl)-amide [Example 29]", "values": [
      {"measurement": "IC50", "value": 11000, "unit": "nM"}
    ]},
    {"molecule": "COc1ccc2sc(C(=O)Nc3nnn[nH]3)c(Sc3cccc(O)c3)c2c1F", "note": "[Example 23, 4-Fluoro-3-(3-hydroxy-phenylsulfanyl)-5-methoxy-benzo[b]thiophene-2-carboxylic acid (1H-tetrazol-5-yl)-amide]", "values": [
      {"measurement": "IC50", "value": 3640, "unit": "nM"}
    ]},
    {"molecule": "COc1ccc2sc(C(=O)Nc3nnn[nH]3)c(Sc3ccc(C(=O)O)cc3)c2c1F", "note": "[Example 34, 4-[4-Fluoro-5-methoxy-2-(1H-tetrazol-5-ylcarbamoyl)-benzo[b]thiophen-3-ylsulfanyl]-benzoic acid]", "values": [
      {"measurement": "IC50", "value": 5950, "unit": "nM"}
    ]},
    {"molecule": "3-Cyclohexylsulfanyl-6-fluoro-5-methyl-benzo[b]thiophene-2-carboxylic acid (1H-tetrazol-5-yl)-amide [Example 41]", "values": [
      {"measurement": "IC50", "setting": "table b291", "value": 12, "unit": "nM"}
    ]},
    {"molecule": "COC(=O)Cc1ccc(Sc2c(C(=O)Nc3nnn[nH]3)sc3ccc(OC)c(F)c23)cc1", "note": "[Example 27, {4-[4-Fluoro-5-methoxy-2-(1H-tetrazol-5-ylcarbamoyl)-benzo[b]thiophen-3-ylsulfanyl]-phenyl}-acetic acid methyl ester]", "values": [
      {"measurement": "IC50", "value": 14200, "unit": "nM"}
    ]},
    {"molecule": "COc1cc2c(O[C@H]3CCC[C@H](C)C3)c(C(=O)Nc3nn[nH]n3)sc2cc1F", "note": "(racemic) [Example 17, trans-(±)-6-Fluoro-5-methoxy-3-(3-methyl-cyclohexyloxy)-benzo[b]thiophene-2-carboxylic acid (2H-tetrazol-5-yl)-amide]", "values": [
      {"measurement": "IC50", "setting": "table b197", "value": 35, "unit": "nM"}
    ]},
    {"molecule": "COc1ccc2sc(C(=O)Nc3nnn[nH]3)c(SC3CCCCC3)c2c1F", "note": "[Example 21, 3-Cyclohexylsulfanyl-4-fluoro-5-methoxy-benzo[b]thiophene-2-carboxylic acid (1H-tetrazol-5-yl)-amide]", "values": [
      {"measurement": "IC50", "value": 580, "unit": "nM"}
    ]},
    {"molecule": "COC(=O)c1cccc(Sc2c(C(=O)Nc3nnn[nH]3)sc3ccc(OC)c(F)c23)c1", "note": "[Example 24, 3-[4-Fluoro-5-methoxy-2-(1H-tetrazol-5-ylcarbamoyl)-benzo[b]thiophen-3-ylsulfanyl]-benzoic acid methyl ester]", "values": [
      {"measurement": "IC50", "value": 4200, "unit": "nM"}
    ]},
    {"molecule": "COc1cc2c(OC3CCCC(C)(C)C3)c(C(=O)Nc3nn[nH]n3)sc2cc1F", "note": "(stereo not drawn) [Example 13, 3-(3,3-Dimethyl-cyclohexyloxy)-6-fluoro-5-methoxy-benzo[b]thiophene-2-carboxylic acid (2H-tetrazol-5-yl)-amide]", "values": [
      {"measurement": "IC50", "value": 6.5, "unit": "nM"}
    ]},
    {"molecule": "6-Fluoro-5-methoxy-3-phenoxy-benzo[b]thiophene-2-carboxylic acid iminomethyl-amide [Example 3]", "values": [
      {"measurement": "IC50", "value": 24.5, "unit": "nM"}
    ]},
    {"molecule": "COc1cc2c(SC3CCCC3)c(C(=O)Nc3nnn[nH]3)sc2cc1F", "note": "[Example 42, 3-Cyclopentylsulfanyl-6-fluoro-5-methoxy-benzo[b]thiophene-2-carboxylic acid (1H-tetrazol-5-yl)-amide]", "values": [
      {"measurement": "IC50", "setting": "table b291", "value": 11, "unit": "nM"}
    ]},
    {"molecule": "COc1ccc2sc(C(=O)Nc3nnn[nH]3)c(Sc3cccc(Cl)c3)c2c1F", "note": "[Example 31, 3-(3-Chloro-phenylsulfanyl)-4-fluoro-5-methoxy-benzo[b]thiophene-2-carboxylic acid (1H-tetrazol-5-yl)-amide]", "values": [
      {"measurement": "IC50", "value": 5870, "unit": "nM"}
    ]},
    {"molecule": "COc1cc2c(OC3CCC3)c(C(=O)Nc3nn[nH]n3)sc2cc1F", "note": "[Example 16, 3-Cyclobutoxy-6-fluoro-5-methoxy-benzo[b]thiophene-2-carboxylic acid (2H-tetrazol-5-yl)-amide]", "values": [
      {"measurement": "IC50", "value": 32.5, "unit": "nM"}
    ]},
    {"molecule": "COc1cc2c(OC3CCOCC3)c(C(=O)Nc3nn[nH]n3)sc2cc1F", "note": "[Example 14, 6-Fluoro-5-methoxy-3-(tetrahydro-pyran-4-yloxy)-benzo[b]thiophene-2-carboxylic acid (2H-tetrazol-5-yl)-amide]", "values": [
      {"measurement": "IC50", "value": 62.5, "unit": "nM"}
    ]},
    {"molecule": "CCc1cccc(Oc2c(C(=O)Nc3nn[nH]n3)sc3cc(F)c(OC)cc23)c1", "note": "[Example 5, 3-(3-Ethyl-phenoxy)-6-fluoro-5-methoxy-benzo[b]thiophene-2-carboxylic acid (2H-tetrazol-5-yl)-amide]", "values": [
      {"measurement": "IC50", "value": 62.5, "unit": "nM"}
    ]},
    {"molecule": "COc1cc2c(OC3CCCCC3)c(C(=O)Nc3nn[nH]n3)sc2cc1F", "note": "[Example 7, 3-Cyclohexyloxy-6-fluoro-5-methoxy-benzo[b]thiophene-2-carboxylic acid (2H-tetrazol-5-yl)-amide]", "values": [
      {"measurement": "IC50", "value": 10.5, "unit": "nM"}
    ]},
    {"molecule": "COc1cccc(Sc2c(C(=O)Nc3nnn[nH]3)sc3ccc(OC)c(F)c23)c1", "note": "[Example 32, 4-Fluoro-5-methoxy-3-(3-methoxy-phenylsulfanyl)-benzo[b]thiophene-2-carboxylic acid (1H-tetrazol-5-yl)-amide]", "values": [
      {"measurement": "IC50", "value": 5940, "unit": "nM"}
    ]},
    {"molecule": "3-(4-Chloro-phenylsulfanyl)-6-fluoro-5-methoxy-benzo[b]thiophene-2-carboxylic acid (1H-tetrazol-5-yl)-amide [Example 20]", "values": [
      {"measurement": "IC50", "value": 45.5, "unit": "nM"}
    ]},
    {"molecule": "COc1cc2c(Sc3ccccc3)c(C(=O)Nc3nnn[nH]3)sc2cc1F", "note": "[Example 19, 6-Fluoro-5-methoxy-3-phenylsulfanyl-benzo[b]thiophene-2-carboxylic acid (1H-tetrazol-5-yl)-amide]", "values": [
      {"measurement": "IC50", "value": 32.5, "unit": "nM"}
    ]},
    {"molecule": "COc1ccc2sc(C(=O)Nc3nnn[nH]3)c(Sc3cccc(C(=O)O)c3)c2c1F", "note": "[Example 25, 3-[4-Fluoro-5-methoxy-2-(1H-tetrazol-5-ylcarbamoyl)-benzo[b]thiophen-3-ylsulfanyl]-benzoic acid]", "values": [
      {"measurement": "IC50", "value": 2390, "unit": "nM"}
    ]},
    {"molecule": "COc1ccc2sc(C(=O)Nc3nnn[nH]3)c(Sc3ccc(CCC(=O)O)cc3)c2c1F", "note": "[Example 36, 3-{4-[4-Fluoro-5-methoxy-2-(1H-tetrazol-5-ylcarbamoyl)-benzo[b]thiophen-3-ylsulfanyl]-phenyl}-propionic acid]", "values": [
      {"measurement": "IC50", "value": 7180, "unit": "nM"}
    ]},
    {"molecule": "3-(4-Cyclohexyl-phenylsulfanyl)-4-fluoro-5-methoxy-benzo[b]thiophene-2-carboxylic acid (1H-tetrazol-5-yl)-amide [Example 37]", "values": [
      {"measurement": "IC50", "value": 505, "unit": "nM"}
    ]},
    {"molecule": "COc1cc2c(Oc3ccc(C4CCCCC4)cc3)c(C(=O)Nc3nn[nH]n3)sc2cc1F", "note": "[Example 4, 3-(4-Cyclohexyl-phenoxy)-6-fluoro-5-methoxy-benzo[b]thiophene-2-carboxylic acid (2H-tetrazol-5-yl)-amide]", "values": [
      {"measurement": "IC50", "value": 33.5, "unit": "nM"}
    ]},
    {"molecule": "COc1cc2c(Oc3ccc(OC4CCCC4)cc3)c(C(=O)Nc3nn[nH]n3)sc2cc1F", "note": "[Example 2, 3-(4-Cyclopentyloxy-phenoxy)-6-fluoro-5-methoxy-benzo[b]thiophene-2-carboxylic acid (2H-tetrazol-5-yl)-amide]", "values": [
      {"measurement": "IC50", "value": 15, "unit": "nM"}
    ]},
    {"molecule": "3-[2-(Acetyl-methyl-amino)-1-phenyl-propylsulfanyl]-4-fluoro-5-methoxy-benzo[b]thiophene-2-carboxylic acid (1H-tetrazol-5-yl)-amide [Example 30]", "values": [
      {"measurement": "IC50", "value": 20000, "unit": "nM"}
    ]}
  ]
}
